Values after ≈ are worked out from the molar mass of the structure shown. Read-outs that look alike come from different tables or passages of the source.
Legend:
C. difficile ATCC 630 = test: Effect of pH on MIC/MBC, C. difficile ATCC 630; type: cell-based, Clostridioides difficile; details: for MBC: read-out: MBC; for MIC: read-out: MIC
Procedure: (§1) The susceptibility of C. difficile isolates to the CPP-PNA conjugates or to the CPP alone was determined in vitro as described before with slight modifications ([43] [–] [45]). Briefly, the CPP-PNA conjugates, the CPP alone, and the antibiotics vancomycin and fidaxomicin were added in triplicate to the first row of ultra-low adhesion 96-well plates (Corning Inc., Corning, NY). A suspension of C. difficile equivalent to 0.5 McFarland solution was added to Mueller-Hilton II broth, which was then added to the ultra-low adhesion plate and then serially diluted. The plates were incubated anaerobically for 48 hours at 37°C. The minimum inhibitory concentration was defined as the lowest concentration of the CPP-PNA conjugate that could inhibit bacterial growth when observed visually.
(§2) The MIC and MBC experiments were repeated twice.
(§3) The susceptibility of C. difficile (ATCC 630 and ATCC BAA 1870) to the rpoA-TAT conjugate was evaluated over a pH range of 6 to 9 using the broth microdilution method ([43], [46] [–] [48]). The desired pH for susceptibility testing was attained by the addition of either 0.1 N HCL or 1 N NaOH to the media. The experiment was repeated twice.

[1] = test system: C. difficile ATCC BAA 1870; test: Effect of pH on MIC/MBC, C. difficile ATCC BAA 1870; type: cell-based, Clostridioides difficile; details: for MBC: read-out: MBC; for MIC: read-out: MIC
Procedure: as §1, §2, §3

[2] = test system: rpoA gene (RNA polymerase α subunit) of C. difficile ATCC 630; test: RT-PCR rpoA gene expression; type: cell-based, Clostridioides difficile; details: 12 hours, qPCR
Procedure: (§4) The antisense effect of the rpoA-TAT conjugate was evaluated using a real-time quantitative reverse-transcriptase polymerase chain reaction (RT-PCR) assay ([11], [12]). Briefly, an overnight culture of C. difficile ATCC 630 was diluted in fresh Mueller-Hilton broth II and added in triplicate to low-adhesion microcentrifuge tubes. […] The tubes were incubated anaerobically at 37°C for 12 hours following which the bacterial pellet in each treatment group was collected by centrifugation at 10,000 × g for 10 minutes. Bacteria were subsequently lysed with recombinant lysostaphin (100 µg/mL) in Tris-EDTA (TE) buffer (1 mol/L Tris, 0.5 mol/L ethylenediaminetetraacetate pH 8, nuclease-free H20), and total RNA was extracted using the TRIzol Max Bacterial Isolation Kit as per the manufacturer’s instructions. Turbo DNAse was used to remove genomic DNA contamination from each sample as per the protocol. cDNA was synthesized using the SuperScript III First-Strand Synthesis Kit as per the manufacturer’s instructions. The relative quantification of cDNA for each treatment group was determined using the iTaq Universal SYBR Green One-Step Kit and CFX96 Real-Time PCR Detection System per the manufacturer’s instructions.
(§5) The constitutively expressed tpi gene was used as an internal control. Real-time RT-PCR results were analyzed using the 2^-ΔΔCT method.

[3] = test system: toxin A (tcdA) gene of C. difficile ATCC 630; test: RT-PCR toxin A (tcdA) gene expression; type: cell-based, Clostridioides difficile; details: 12 hours, qPCR
Procedure: as §4, §5

[4] = test system: toxin B (tcdB) gene of C. difficile ATCC 630; test: RT-PCR toxin B (tcdB) gene expression; type: cell-based, Clostridioides difficile; details: 12 hours, qPCR
Procedure: as §4, §5

[5] = test system: spoOA gene of C. difficile ATCC 630; test: RT-PCR spoOA gene expression; type: cell-based; details: 12 hours, qPCR
Procedure: as §4, §5

[6] = test system: gut microflora strains (Lactobacillus sp., Bacteroides sp., and Bifidobacterium sp.); test: Growth inhibition of representative gut microflora strains (summary); type: cell-based; details: broth microdilution, 48 hours
Procedure: The susceptibility of gut microflora strains to the rpoA-TAT conjugate was determined using the broth microdilution assay, as described above. Briefly, bacterial suspensions of Bifidobacterium sp. and Bacteroides sp., in supplemented BHIS broth, and Lactobacilli strains, in MRS broth, were added to ultra-low adhesion 96-well plates and serially diluted. The MIC was recorded after 48 hours.

[7] = Clostridioides difficile, ATCC630, pH 6
[8] = Clostridioides difficile, ATCC630, pH 7
[9] = Clostridioides difficile, ATCC630, pH 8
[10] = Clostridioides difficile, BAA1870, pH 6
[11] = Clostridioides difficile, BAA1870, pH 7
[12] = Clostridioides difficile, BAA1870, pH 8

Compound: GRKKKRRQRRRYK-O-CATGGACAAAAC-NH2 [rpoA-TAT, PNA oligomer antisense to C. difficile rpoA covalently conjugated to the TAT cell penetrating peptide]
- MBC (C. difficile ATCC 630; pH 6): 8 µM
- MIC (C. difficile ATCC 630; pH 6): 8 µM
- MBC (C. difficile ATCC 630; pH 7): 8 µM
- MIC (C. difficile ATCC 630; pH 7): 8 µM
- MBC (C. difficile ATCC 630; pH 8): 8 µM
- MIC (C. difficile ATCC 630; pH 8): 8 µM
- MBC ([1]; pH 6): 8 µM
- MIC ([1]; pH 6): 8 µM
- MBC ([1]; pH 7): 8 µM
- MIC ([1]; pH 7): 8 µM
- reduction of rpoA gene expression ([2]; 0.125× MIC (1 µM), tpi internal control): 34%
- reduction of rpoA gene expression ([2]; 0.25× MIC (2 µM)): 46.3%
- reduction of rpoA gene expression ([2]; 0.5× MIC (4 µM)): 78.2%
- reduction of toxin A (tcdA) gene expression ([3]; 0.125× MIC (1 µM)): 41.3%
- reduction of toxin A (tcdA) gene expression ([3]; 0.25× MIC (2 µM)): 50.7%
- reduction of toxin A (tcdA) gene expression ([3]; 0.5× MIC (4 µM)): 71.2%
- reduction of toxin B (tcdB) gene expression ([4]; 0.125× MIC (1 µM)): 26%
- reduction of toxin B (tcdB) gene expression ([4]; 0.25× MIC (2 µM)): 51.2%
- reduction of toxin B (tcdB) gene expression ([4]; 0.5× MIC (4 µM)): 74.5%
- reduction of spoOA gene expression ([5]; 0.125× MIC (1 µM)): 45.2%
- reduction of spoOA gene expression ([5]; 0.25× MIC (2 µM)): 58.4%
- reduction of spoOA gene expression ([5]; 0.5× MIC (4 µM)): 68.5%
- concentration without growth inhibition of gut microflora strains [6]: > 32 µM

Compound: CCc1c(Cl)c(O)c(Cl)c(O)c1C(=O)O[C@H]1[C@H](O)[C@H](OC)[C@H](OC/C2=C\C=C\C[C@H](O)/C(C)=C/[C@H](CC)[C@@H](O[C@@H]3OC(C)(C)[C@@H](OC(=O)C(C)C)[C@H](O)[C@@H]3O)/C(C)=C/C(C)=C/C[C@@H]([C@@H](C)O)OC2=O)O[C@@H]1C [Fidaxomicin, fidaxomicin]
- MBC (C. difficile ATCC 630; [7]): 1 µM (≈ 1.06 µg/mL)
- MIC (C. difficile ATCC 630; [7]): 0.5 µM (≈ 0.529 µg/mL)
- MBC (C. difficile ATCC 630; [8]): 1 µM (≈ 1.06 µg/mL)
- MIC (C. difficile ATCC 630; [8]): 0.5 µM (≈ 0.529 µg/mL)
- MBC (C. difficile ATCC 630; [9]): 4 µM (≈ 4.23 µg/mL)
- MIC (C. difficile ATCC 630; [9]): 1 µM (≈ 1.06 µg/mL)
- MBC [1, 10]: 2 µM (≈ 2.12 µg/mL)
- MIC [1, 10]: 1 µM (≈ 1.06 µg/mL)
- MBC [1, 11]: 2 µM (≈ 2.12 µg/mL)
- MIC [1, 11]: 1 µM (≈ 1.06 µg/mL)
- MBC [1, 12]: 4 µM (≈ 4.23 µg/mL)
- MIC [1, 12]: 1 µM (≈ 1.06 µg/mL)

— PMC10581251, “Antisense inhibition of RNA polymerase α subunit of Clostridioides difficile” (Microbiology Spectrum, 2023)
